According to patent US20240270821A1, “GIP/GLP1/GCG TRI-RECEPTOR AGONISTS AND USES THEREOF” (priority 2023, published 2024):
pEC50: −log10 of the molar value.

Experiments:
Type in all cases: cell-based
hGIPR [1] = target: T1, hGIPR (Homo sapiens, UniProt P48546); experiment: Functional cAMP activity in the presence of 1% HSA; conditions: read-out: cAMP Rel EC50, hGIPR
T1 sequence (P48546 22-466): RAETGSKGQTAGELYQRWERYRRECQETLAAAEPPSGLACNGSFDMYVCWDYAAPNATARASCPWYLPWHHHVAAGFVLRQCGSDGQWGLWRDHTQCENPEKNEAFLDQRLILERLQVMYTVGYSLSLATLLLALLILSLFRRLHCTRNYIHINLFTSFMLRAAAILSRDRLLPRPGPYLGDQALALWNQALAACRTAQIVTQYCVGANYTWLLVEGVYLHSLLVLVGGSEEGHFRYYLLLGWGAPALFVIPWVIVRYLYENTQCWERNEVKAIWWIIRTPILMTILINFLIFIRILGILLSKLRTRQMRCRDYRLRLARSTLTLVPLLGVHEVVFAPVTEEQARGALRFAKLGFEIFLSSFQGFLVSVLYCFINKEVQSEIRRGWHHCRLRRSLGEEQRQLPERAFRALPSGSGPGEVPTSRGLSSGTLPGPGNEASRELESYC

hGLP-1R [2] = target: T2, hGLP-1R (Homo sapiens, UniProt P43220); experiment: Functional cAMP activity in the presence of 1% HSA; conditions: read-out: cAMP Rel EC50, hGLP-1R
human GcgR = human GcgR (Homo sapiens, UniProt P47871); experiment: Functional cAMP activity in the presence of 1% HSA; conditions: read-out: cAMP Rel EC50, hGcgR
hGIPR [3] = target: T1, hGIPR; experiment: Functional cAMP activation in the presence of 0.1% casein (no HSA); conditions: in the presence of 0.1% casein (no HSA); geometric mean; read-out: Relative cAMP EC50, hGIPR;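 on Relative cAMP EC50, hGIPR: intracellular cAMP rise after 30 min at 37 °C read by HTRF against a standard curve, scaled between buffer alone (0%) and top control ligand concentration (100%), four-parameter fit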;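 on Relative cAMP EC50, hGLP-1R: intracellular cAMP rise after 30 min at 37 °C read by HTRF, normalized between buffer only (0%) and maximal control ligand (100%), four-parameter variable-slope fit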;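 on Relative cAMP EC50, hGcgR: intracellular cAMP rise after 30 min at 37 °C, read by HTRF against a cAMP standard curve, scaled from buffer only (0%) to maximal control ligand response (100%)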
hGLP-1R [4] = target: T2, hGLP-1R; experiment: as above; conditions: in the presence of 0.1% casein (no HSA); geometric mean; read-out: Relative cAMP EC50, hGLP-1R
hGcgR = hGcgR (Homo sapiens, UniProt P47871); experiment: as above; conditions: in the presence of 0.1% casein (no HSA); geometric mean; read-out: Relative cAMP EC50, hGcgR;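 further: intracellular cAMP rise after 30 min at 37 °C, read by HTRF against a cAMP standard curve, scaled from buffer only (0%) to maximal control ligand response (100%)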
Sequence of hGcgR (P47871 26-477): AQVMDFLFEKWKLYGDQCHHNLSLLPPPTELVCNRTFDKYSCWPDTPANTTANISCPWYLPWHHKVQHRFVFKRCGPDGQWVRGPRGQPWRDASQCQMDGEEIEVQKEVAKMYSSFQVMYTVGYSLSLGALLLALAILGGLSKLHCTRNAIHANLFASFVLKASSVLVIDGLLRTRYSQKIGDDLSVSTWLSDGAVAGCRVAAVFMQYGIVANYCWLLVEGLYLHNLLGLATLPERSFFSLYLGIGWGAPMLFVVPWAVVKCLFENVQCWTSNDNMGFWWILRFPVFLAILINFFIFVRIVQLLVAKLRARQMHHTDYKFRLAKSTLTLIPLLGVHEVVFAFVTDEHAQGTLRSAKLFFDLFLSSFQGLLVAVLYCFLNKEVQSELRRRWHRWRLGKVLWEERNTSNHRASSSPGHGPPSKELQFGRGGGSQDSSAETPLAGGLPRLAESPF

T2 sequence (P43220 24-463): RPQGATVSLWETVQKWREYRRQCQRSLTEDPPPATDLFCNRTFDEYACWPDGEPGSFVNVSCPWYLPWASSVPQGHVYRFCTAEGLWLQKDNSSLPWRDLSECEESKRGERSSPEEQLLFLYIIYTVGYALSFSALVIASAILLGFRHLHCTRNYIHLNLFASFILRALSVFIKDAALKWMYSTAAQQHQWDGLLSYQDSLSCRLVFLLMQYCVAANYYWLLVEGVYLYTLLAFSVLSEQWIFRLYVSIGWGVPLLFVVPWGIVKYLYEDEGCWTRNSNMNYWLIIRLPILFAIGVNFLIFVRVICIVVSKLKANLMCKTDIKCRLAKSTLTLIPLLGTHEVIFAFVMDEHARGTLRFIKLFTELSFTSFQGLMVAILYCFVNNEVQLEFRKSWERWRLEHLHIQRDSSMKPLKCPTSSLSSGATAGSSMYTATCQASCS
Sequence of human GcgR (P47871 26-477): as the sequence (P47871 26-477) above

CC[C@H](C)[C@H](NC(=O)[C@H](Cc1ccccc1)NC(=O)[C@H](C)NC(=O)C(C)(C)NC(=O)[C@H](CCC(N)=O)NC(=O)[C@H](C)NC(=O)[C@H](CCCCNC(=O)COCCOCCNC(=O)COCCOCCNC(=O)CC[C@H](NC(=O)CCCCCCCCCCCCCCCCC(=O)O)C(=O)O)NC(=O)[C@H](CCCCN)NC(=O)[C@H](CC(=O)O)NC(=O)[C@H](CC(C)C)NC(=O)[C@](C)(CC(C)C)NC(=O)[C@H](CCCCN)NC(=O)[C@H](CO)NC(=O)[C@H](Cc1ccccc1)NC(=O)[C@H](CC(=O)O)NC(=O)[C@H](CO)NC(=O)[C@@H](NC(=O)[C@H](Cc1ccccc1)NC(=O)[C@@H](NC(=O)CNC(=O)[C@H](CCC(N)=O)NC(=O)C(C)(C)NC(=O)[C@@H](N)Cc1ccc(O)cc1)[C@@H](C)O)[C@@H](C)O)C(=O)N[C@@H](CCC(=O)O)C(=O)N[C@@H](Cc1ccc(O)cc1)C(=O)N[C@@H](CC(C)C)C(=O)N[C@@H](CC(C)C)C(=O)N[C@@H](C)C(=O)NCC(=O)NCC(=O)N1CCC[C@H]1C(=O)N[C@@H](CO)C(=O)N[C@@H](CO)C(=O)NCC(=O)N[C@@H](CCC(=O)O)C(=O)N1CCC[C@H]1C(=O)N1CCC[C@H]1C(=O)N1CCC[C@H]1C(=O)N[C@@H](CO)C(=O)N[C@@H](CCC(=O)O)C(=O)NCC(N)=O [Example 25]
pEC50 (hGIPR [1]): 7.70
pEC50 (hGLP-1R [2]): 6.28
pEC50 (human GcgR): 6.03
pEC50 (hGIPR [3]): 9.89
pEC50 (hGLP-1R [4]): 8.48
pEC50 (hGcgR): 8.17

CC[C@H](C)[C@H](NC(=O)[C@H](Cc1ccccc1)NC(=O)[C@H](CCC(N)=O)NC(=O)C(C)(C)NC(=O)[C@H](CCC(N)=O)NC(=O)[C@H](C)NC(=O)[C@H](CCCCNC(=O)COCCOCCNC(=O)CC[C@H](NC(=O)CCCCCCCCCCCCCCCCCCC(=O)O)C(=O)O)NC(=O)[C@H](CCCCN)NC(=O)[C@H](CC(=O)O)NC(=O)[C@H](CC(C)C)NC(=O)[C@](C)(CC(C)C)NC(=O)[C@H](CCCCN)NC(=O)[C@H](CO)NC(=O)[C@H](Cc1ccccc1)NC(=O)[C@H](CC(=O)O)NC(=O)[C@H](CO)NC(=O)[C@@H](NC(=O)[C@H](Cc1ccccc1)NC(=O)[C@@H](NC(=O)CNC(=O)[C@H](CCC(N)=O)NC(=O)C(C)(C)NC(=O)[C@@H](N)Cc1ccc(O)cc1)[C@@H](C)O)[C@@H](C)O)C(=O)N[C@@H](CCC(=O)O)C(=O)N[C@@H](Cc1c[nH]c2ccccc12)C(=O)N[C@@H](CC(C)C)C(=O)N[C@@H](CC(C)C)C(=O)N[C@@H](CCC(=O)O)C(=O)NCC(=O)NCC(=O)N1CCC[C@H]1C(=O)N[C@@H](CO)C(=O)N[C@@H](CO)C(=O)NCC(=O)N[C@@H](C)C(=O)N1CCC[C@H]1C(=O)N1CCC[C@H]1C(=O)N1CCC[C@H]1C(=O)N[C@@H](CO)C(=O)N[C@@H](CCC(=O)O)C(=O)NCC(N)=O [Example 38]
pEC50 (hGIPR [1]): 6.99
pEC50 (hGLP-1R [2]): 6.05
pEC50 (human GcgR): 5.56
pEC50 (hGIPR [3]): 9.52
pEC50 (hGcgR): 8.02

CC[C@H](C)[C@H](NC(=O)[C@H](CC(C)C)NC(=O)[C@H](Cc1ccc(O)cc1)NC(=O)[C@H](CCC(=O)O)NC(=O)[C@@H](NC(=O)[C@H](Cc1ccccc1)NC(=O)[C@H](C)NC(=O)[C@](C)(Cc1ccncc1)NC(=O)[C@H](CCC(N)=O)NC(=O)[C@H](C)NC(=O)[C@H](CCCCNC(=O)COCCOCCNC(=O)CC[C@H](NC(=O)CCCCCCCCCCCCCCCCC(=O)O)C(=O)O)NC(=O)[C@H](CCCCN)NC(=O)[C@H](CC(=O)O)NC(=O)[C@H](CC(C)C)NC(=O)[C@](C)(CC(C)C)NC(=O)[C@H](CCCN)NC(=O)[C@H](CO)NC(=O)[C@H](Cc1ccncc1)NC(=O)[C@H](CC(=O)O)NC(=O)[C@H](CO)NC(=O)[C@@H](NC(=O)[C@H](Cc1ccccc1)NC(=O)[C@@H](NC(=O)CNC(=O)[C@H](CCC(N)=O)NC(=O)C(C)(C)NC(=O)[C@@H](N)Cc1ccc(O)cc1)[C@@H](C)O)[C@@H](C)O)[C@@H](C)CC)C(=O)N[C@@H](CCC(=O)O)C(=O)NCC(=O)NCC(=O)N[C@@H](CCC(=O)O)C(=O)N[C@@H](CO)C(=O)N[C@@H](CO)C(=O)NCC(=O)N[C@@H](C)C(=O)N1CCC[C@H]1C(=O)N1CCC[C@H]1C(=O)N1CCC[C@H]1C(=O)N[C@@H](CO)C(=O)NCC(=O)N[C@@H](CO)C(N)=O [Example 791]
pEC50 (hGIPR [1]): 6.84
pEC50 (hGLP-1R [2]): 6.01
pEC50 (human GcgR): 6.34
pEC50 (hGIPR [3]): 9.01
pEC50 (hGcgR): 8.63

CC[C@H](C)[C@H](NC(=O)[C@H](CC(C)C)NC(=O)[C@H](Cc1ccc(O)cc1)NC(=O)[C@H](CCC(=O)O)NC(=O)[C@@H](NC(=O)[C@H](Cc1ccccc1)NC(=O)[C@H](C)NC(=O)[C@](C)(Cc1ccncc1)NC(=O)[C@H](CCC(N)=O)NC(=O)[C@H](C)NC(=O)[C@H](CCCCNC(=O)COCCOCCNC(=O)CC[C@H](NC(=O)CCCCCCCCCCCCCCCCC(=O)O)C(=O)O)NC(=O)[C@H](CCCCN)NC(=O)[C@H](CC(=O)O)NC(=O)[C@H](CC(C)C)NC(=O)[C@](C)(CC(C)C)NC(=O)[C@H](CCC(N)=O)NC(=O)[C@H](CO)NC(=O)[C@H](Cc1ccncc1)NC(=O)[C@H](CC(=O)O)NC(=O)[C@H](CO)NC(=O)[C@@H](NC(=O)[C@H](Cc1ccccc1)NC(=O)[C@@H](NC(=O)CNC(=O)[C@H](CCC(N)=O)NC(=O)C(C)(C)NC(=O)[C@@H](N)Cc1ccc(O)cc1)[C@@H](C)O)[C@@H](C)O)[C@@H](C)CC)C(=O)N[C@@H](CCC(=O)O)C(=O)NCC(=O)NCC(=O)N[C@@H](CCC(=O)O)C(=O)N[C@@H](CO)C(=O)N[C@@H](CO)C(=O)NCC(=O)N[C@@H](C)C(=O)N1CCC[C@H]1C(=O)N1CCC[C@H]1C(=O)N1CCC[C@H]1C(=O)N[C@@H](CO)C(=O)NCC(=O)N[C@@H](CO)C(N)=O [Example 793]
pEC50 (hGLP-1R [2]): 6.25
pEC50 (human GcgR): 5.78
pEC50 (hGIPR [3]): 9.08
pEC50 (hGLP-1R [4]): 8.50
pEC50 (hGcgR): 8.42

CC[C@H](C)[C@H](NC(=O)[C@H](Cc1ccccc1)NC(=O)[C@H](C)NC(=O)[C@](C)(Cc1ccncc1)NC(=O)[C@H](CCC(N)=O)NC(=O)[C@H](C)NC(=O)[C@H](CCCCNC(=O)CC[C@H](NC(=O)CC[C@H](NC(=O)CCCCCCCCCCCCCCCCC(=O)O)C(=O)O)C(=O)O)NC(=O)[C@H](CCCN)NC(=O)[C@H](CC(=O)O)NC(=O)[C@H](CC(C)C)NC(=O)[C@](C)(CC(C)C)NC(=O)[C@H](CCC(N)=O)NC(=O)[C@H](CO)NC(=O)[C@H](Cc1ccncc1)NC(=O)[C@H](CC(=O)O)NC(=O)[C@H](CO)NC(=O)[C@@H](NC(=O)[C@H](Cc1ccccc1)NC(=O)[C@@H](NC(=O)CNC(=O)[C@H](CCC(N)=O)NC(=O)C(C)(C)NC(=O)[C@@H](N)Cc1ccc(O)cc1)[C@@H](C)O)[C@@H](C)O)C(=O)N[C@@H](CCC(=O)O)C(=O)N[C@@H](Cc1ccc(O)cc1)C(=O)N[C@@H](CC(C)C)C(=O)N[C@H](C(=O)N[C@@H](CCC(=O)O)C(=O)N[C@H](C)C(=O)NCC(=O)N1CCC[C@H]1C(=O)N[C@@H](CO)C(=O)N[C@@H](CO)C(=O)NCC(=O)N[C@@H](C)C(=O)N1CCC[C@H]1C(=O)N1CCC[C@H]1C(=O)N1CCC[C@H]1C(=O)N[C@@H](CCC(=O)O)C(=O)NCC(=O)N[C@@H](CO)C(N)=O)[C@@H](C)CC [Example 1021]
pEC50 (hGLP-1R [2]): 6.76
pEC50 (human GcgR): 6.23
pEC50 (hGIPR [3]): 9.66
pEC50 (hGLP-1R [4]): 8.89
pEC50 (hGcgR): 8.36
